Tests used:
Format in all cases: cell-based, human
Calu-3 monolayers [1] = test: Transepithelial chloride currents in forskolin-prestimulated Calu-3 monolayers; conditions: prestimulated with 10 μM forskolin
Experimental: FIGS. 13A-13C illustrate the effect of additional representative flavonoids and isoflavonoids on chloride current in epithelial cells. FIG. 13A is a graph showing the stimulation of transepithelial chloride currents by reservatrol (100 μM), flavanone (100 μM), flavone (200 μM), apigenin (20 μM), apigenin 7-O-neohesperidoside (30 μM), kaempferol (20 μM), fisetin (100 μM), quercetin (30 μM), rutin (30 μM), genistein (30 μM), daidzein (50 μM), biochanin A (100 μM) and prunetin (100 μM) in Calu-3 monolayers. Experiments were performed in the presence of 10 μM forskolin. Stimulated currents are plotted relative to forskolin stimulated increase (forskolin stimulated currents are 100%). FIG. 13B is a recording showing the effect of 7,4′-dihydroxyflavone on chloride current in unstimulated tissue. […] Increasing concentrations of 7,4′-dihydroxyflavone (as indicated in μM) were added to mucosal side and dose-dependently stimulated chloride currents. Currents were recorded with a serosal-to-mucosal chloride gradient at 0 mV and pulses were obtained at 2 mV. FIG. 13C is a recording illustrating the effect of trimethoxy-apigenin. […] Increasing concentrations of trimethoxy-apigenin (as indicated in μM) were added to mucosal side and dose-dependently stimulated chloride currents. Experiment was performed on unstimulated tissue. Currents were recorded with a serosal-to-mucosal chloride gradient at 0 mV and pulses were obtained at 2 mV.
Airway epithelial cells were prestimulated with 10 μM forskolin. The percent increase in chloride current was then determined following treatment with a series of polyphenolic compounds. FIG. 13A summarizes the stimulatory effect of these compounds.

Calu-3 monolayers [2] = test: Transepithelial short-circuit current (Isc) across unstimulated Calu-3 monolayers; conditions: for transepithelial chloride currents in unstimulated tissue: compound added to mucosal (or serosal) perfusion, L-ascorbic acid 100 μM
Experimental: Currents were recorded with a serosal-to-mucosal chloride gradient at 0 mV and pulses were obtained at 2 mV.
Ascorbic acid (100 μM) was added as indicated. For comparison, ascorbic acid-stimulated chloride current was subsequently stimulated by the cAMP elevating agonist forskolin (20 μM, serosal). The CFTR activator genistein (20 mM) was then added to the mucosal perfusion as indicated. […] Currents were recorded with a serosal-to-mucosal chloride gradient at 0 mV and pulses were obtained at 2 mV.
100 μM ascorbic acid and forskolin (fsk, 20 μM, serosal) were added as indicated. The CFTR activator kaempferol (20 μM) was subsequently added, as indicated. […] Currents were recorded with a serosal-to-mucosal chloride gradient at 0 mV and pulses were obtained at 2 mV.
This experiment was performed using unstimulated tissue.
Kinetic analysis is depicted on the right panel and estimated half maximal stimulatory dose was 11.7 μM. […]
For comparison, ascorbic acid-stimulated chloride currents were stimulated by the cAMP elevating agonist forskolin (20 μM, serosal).
Stimulated C1 currents returned to baseline after 5-15 min.

Calu-3 airway epithelia = test: Short-circuit current (transepithelial Cl secretion) across Calu-3 airway epithelia, Examples 12-13
Experimental: (§1) Short-circuit current measurement. Calu-3 or CF15 cells were grown as monolayers, mounted in Ussing chambers and short-circuit current (ISC) was recorded as described (Illek, B. & Fischer, H. (1998) Am. J. Physiol. 275, L902-L910). At 20-50 second intervals, transepithelial voltage was clamped from zero to 2 mV and the transepithelial resistance (Rte) was calculated. A serosa-to-mucosa-directed Cl gradient was applied. Serosal Ussing chamber solution contained (in mM): 120 NaCl, 20 NaHCO3, 5 KHCO3, 1.2 NaH2PO4, 5.6 glucose, 2.5 CaCl2, 1.2 MgCl2. In mucosal Ussing chamber solutions, all Cl salts were exchanged for gluconate salts.
Vitamin C activation of CFTR-mediated Cl secretion was studied in Calu-3 cells grown as epithelial monolayers (FIG. 21A). Exposure of the apical membrane to maximal concentrations of L-ascorbic acid stimulated transepithelial Cl currents (ISC) in a sustained fashion to 96±11 μA/cm^2 (n=22). Subsequent addition of forskolin further increased ISC to 141±33 μA/cm^2 (n=9, p=0.029). On average, Cl secretion was stimulated by ascorbate to 68% of the currents elicited by forskolin. The Cl channel blocker diphenylcarboxylate (DPC, 4 mM) was added as a measure for the transcellular Cl current decreasing ISC to 30±4 μA/cm^2. When Cl secretion was first stimulated with forskolin (to 106±23 μA/cm^2, n=4) ascorbate had no significant effect on Ise (at 100 μM: ΔICl=−1.5±3.5 μA/cm^2, n=4, not different from zero, one-sample t test). Half-maximal stimulatory constant averaged 36.5±2.9 μm as determined from transepithelial dose-response experiments.
Furthermore, the response to ascorbate in Na-containing medium was blunted in the presence of phloretin, a known inhibitor of the sodium-dependent vitamin C transporters SVCT1 and SVCT2 (Tsukaguchi, H., Tokui, T., Mackenzie, B., Berger, U. V., Chen, X. Z., Wang, Y., Brubaker, R. F. & Hediger, M. A. (1999) Nature 399, 70-75). […] Molecular expression of SVCT1 and SVCT2 transcripts in Calu-3 cells was verified using RT-PCR and DNA sequencing analysis. For comparison, human ciliated tracheal epithelial cultures (hTE) and a nasal cystic fibrosis airway cell line (CF15) were included. […] The recombinantly expressed SVCT2-EGFP fusion protein was targeted exclusively to the apical membrane pole of CF15 epithelia.

[3] = test system: wildtype CFTR-corrected CF15 monolayers; test: Short-circuit current across wildtype CFTR-corrected CF15 monolayers; conditions: forskolin added on ascorbate-stimulated current
Experimental: Human airway cell culture. The human submucosal serous gland-like cell line Calu-3, the CF nasal epithelial cell line homozygous for ΔF508 CFTR (CF15) and human tracheal primary cultures (hTE) were cultured as described (Jefferson, D. M., Valentich, J. D., Marini, F. C., Grubman, S. A., Iannuzzi, M. C., Dorkin, H. L., Li, M., Klinger, K. W. & Welsh, M. J. (1990) Am. J. Physiol. 259, L496-L505. Sachs, L. A., Finkbeiner, W. E. & Widdicombe, J. H. (2003) In Vitro Cell Dev. Biol. Anim. 39, 56-62.). Wildtype CFTR-corrected CF15 cells were generated via adenovirus-mediated gene transfer. Growth media were nominally free of ascorbic acid (<10 μm, University Pathology Inc., Salt Lake City, Utah). For transepithelial measurements cells were grown on permeable filter inserts and used after 3 to 10 days.
as §1
The CF15 cell line was used to determine whether ascorbate-stimulated Cl currents were solely mediated by the CFTR Cl conductance. The CF15 cell line is characterized by the absence of functional CFTR in the apical plasma membrane but the presence of other non-CFTR Cl conductances (Jefferson, D. M., Valentich, J. D., Marini, F. C., Grubman, S. A., Iannuzzi, M. C., Dorkin, H. L., Li, M., Klinger, K. W. & Welsh, M. J. (1990) Am. J. Physiol. 259, L496-L505). A concentration of L-ascorbic acid that lay within the upper plateau of the dose response curve (500 μm) was applied and ascorbate-stimulated Cl currents in CF15 vs. wildtype CFTR-corrected CF15 monolayers was compared (FIG. 23A). […] The defective response to L-ascorbic acid was reversed in wildtype CFTR-corrected CF15 epithelia such that ISC responded promptly to L-ascorbic acid (ΔISC=7.5±0.5 μA/cm^2, n=6). The ascorbate-stimulated current was further activated by the cAMP agonist forskolin and total stimulated ISC averaged 12.1±1.1 μA/cm^2 (FIG. 4B). The ascorbate-stimulated Cl current reached 60±15% of the forskolin-stimulated current in CFTR-corrected CF15 monolayers, which was close to the corresponding findings in Calu-3 monolayers (68%, see FIG. 21A). The absence of ascorbate-stimulated Cl currents in CF15 monolayers supports the notion that non-CFTR Cl conductances were not activated by L-ascorbic acid.
In this example, chloride currents stimulated by L-ascorbate or D-ascorbate were measured in CF15 versus. wildtype CFTR-corrected CF15 monolayers. A concentration of L-ascorbate (1 mM) or D-isoascorbate (300 μm) that lay within the upper plateau of the dose-response curve was applied to cells and the resulting chloride currents stimulated in CF15 versus wildtype CFTR-corrected CF15 monolayers were measured (FIG. 25 A-H). All experiments were performed in the presence of the sodium channel blocker amiloride. […]

[4] = dehydroascorbic acid 10, 100 or 300 μM

**Q.** How did the “chloride currents further stimulated to (forskolin stimulated currents are 100%)” value (Calu-3 monolayers [1]; compound at 100 μM) turn out when `COc1cc(O)c2c(=O)c(-c3ccc(O)cc3)coc2c1` [prunetin] was run?
**A.** Its value is 161%.

**Q.** For `Oc1ccc(/C=C/c2cc(O)cc(O)c2)cc1` [reservatrol, trans-3,5,4′-trihydroxystilbene], which “chloride currents further stimulated to (forskolin stimulated currents are 100%)” value (Calu-3 monolayers [1]; compound at 100 μM) is on record?
**A.** The value was 135%.

**Q.** What about the “transepithelial chloride currents in unstimulated tissue” value (Calu-3 monolayers [2]; [4]) of the same molecule?
**A.** Its value is “dose-dependently stimulated transepithelial chloride currents”.

**Q.** Which “chloride currents further stimulated to (forskolin stimulated currents are 100%)” value (Calu-3 monolayers [1]; compound at 30 μM) does the source give for `C[C@@H]1O[C@@H](OC[C@H]2O[C@@H](Oc3c(-c4ccc(O)c(O)c4)oc4cc(O)cc(O)c4c3=O)[C@H](O)[C@@H](O)[C@@H]2O)[C@H](O)[C@H](O)[C@H]1O` [rutin] here?
**A.** The value was 149%.

**Q.** `C[C@@H]1O[C@@H](O[C@H]2[C@H](Oc3cc(O)c4c(=O)cc(-c5ccc(O)cc5)oc4c3)O[C@H](CO)[C@@H](O)[C@@H]2O)[C@H](O)[C@H](O)[C@H]1O` [apigenin 7-O-neohesperidoside] was tested. Which “chloride currents further stimulated to (forskolin stimulated currents are 100%)” value (Calu-3 monolayers [1]; compound at 30 μM) did it give?
**A.** The value was 155%.

**Q.** `O=c1c(-c2ccc(O)cc2)coc2cc(O)ccc12` [daidzein] was tested. Which “chloride currents further stimulated to (forskolin stimulated currents are 100%)” value (Calu-3 monolayers [1]; compound at 50 μM) did it give?
**A.** The value was 162%.

**Q.** With `O=c1cc(-c2ccccc2)oc2ccccc12` [flavone] as the molecule, how does the “chloride currents further stimulated to (forskolin stimulated currents are 100%)” value (Calu-3 monolayers [1]; compound at 200 μM) read?
**A.** The value was 128%.

**Q.** How did the “response to ascorbate in presence of SVCT inhibitor” value (Calu-3 airway epithelia; Na-containing medium, pre-treatment with 200 μM phloretin) turn out when `O=C(CCc1ccc(O)cc1)c1c(O)cc(O)cc1O` [phloretin, reference compound] was run?
**A.** Its value is “blunted”.

**Q.** Which results are given for `C=C[C@@]1(C)CC(=O)[C@]2(O)[C@@]3(C)[C@@H](O)CCC(C)(C)[C@@H]3[C@H](O)[C@H](OC(C)=O)[C@@]2(C)O1` [forskolin, reference compound]?
**A.** Cl secretion first stimulated with forskolin to (Calu-3 airway epithelia; forskolin first, n=4): 106±23 μA/cm^2; ISC further increased to (Calu-3 airway epithelia; subsequent addition of forskolin after L-ascorbic acid, n=9): 141±33 μA/cm^2; total stimulated ISC [3]: 12.1±1.1 μA/cm^2

**Q.** For fisetin, which “chloride currents further stimulated to (forskolin stimulated currents are 100%)” value (Calu-3 monolayers [1]; compound at 100 μM) is on record?
**A.** The value was 108%.

**Q.** With `O=c1cc(-c2ccc(O)cc2)oc2cc(O)ccc12` [7,4′-Dihydroxyflavone] as the molecule, how does the “transepithelial chloride currents in unstimulated tissue” value (Calu-3 monolayers [2]; [4]) read?
**A.** The value was “dose-dependently stimulated transepithelial C1 currents”.

**Q.** Which “chloride currents further stimulated to (forskolin stimulated currents are 100%)” value (Calu-3 monolayers [1]; compound at 100 μM) does the source give for `O=C1CC(c2ccccc2)Oc2ccccc21` (stereo not drawn) [flavanone] here?
**A.** The value was 140%.

**Q.** What does the source list for `COc1ccc(-c2cc(=O)c3c(OC)cc(OC)cc3o2)cc1` [trimethoxy-apigenin]?
**A.** transepithelial chloride currents in unstimulated tissue (Calu-3 monolayers [2]; [4]): dose-dependently stimulated transepithelial C1 currents; EC50 (Calu-3 monolayers [2]; unstimulated tissue, mucosal addition, kinetic analysis, read-out: estimated half maximal stimulatory dose): 11.7 µM

**Q.** Which results are given for `O=C1O[C@H](C(O)CO)C(=O)C1=O` (stereo partly drawn) [dehydroascorbic acid, L-threo-2,3-Hexodiulosonic acid γ-lactone]?
**A.** transepithelial chloride currents in unstimulated tissue (Calu-3 monolayers [2]; [4]): effectively stimulated transepithelial chloride currents; stimulated Cl currents returned to baseline after (Calu-3 monolayers [2]; [4]): 5 to 15 min
